Laboratory results from patent publication US11530223B2, “Spiro-lactam NMDA receptor modulators and uses thereof” (Aptinyx Inc., priority 2016, dated 2022).
Like-named read-outs stand apart in the source and are kept apart here.

Experiments:
Sprague Dawley rats = assay: Porsolt forced swim test; assay type: in vivo; conditions: 0.1 mg/kg; for % reduction in float time: relative to vehicle group
Method: A non-clinical in vivo pharmacology study (Porsolt assay) was performed to measure antidepressant-like effects. A negative control (0.5% sodium carboxymethyl cellulose in 0.9% sterile saline vehicle) and a positive control (fluoxetine) are shown for comparison against test compound. The study allowed for the evaluation of the effects of each compound on the Porsolt forced swim test as assessed by the rats' response (reduced floating time) during a 5-minute swimming test.
Male 2-3 month old Sprague Dawley rats were used (Harlan, Indianapolis, Ind.). Rats were housed in Lucite cages with aspen wood chip bedding, maintained on a 12:12 light:dark cycle (lights on at 5 AM), and given ad libitum access to Purina lab chow (USA) and tap water throughout the study.
The Porsolt forced swim test adapted for use in rats was performed as described by Burgdorf et al., (The long-lasting antidepressant effects of rapastinel (GLYX-13) are associated with a metaplasticity process in the medial prefrontal cortex and hippocampus. Neuroscience 308:202-211, 2015). Animals were placed in a 46 cm tall×20 cm in diameter clear glass tube filled to 30 cm with tap water (23±1° C.) for 15 min on the first day (habituation) and 5 min on the subsequent test day. Positive control fluoxetine was dosed 3 times (24 h, 5 h and 1 h) prior to testing. Animals were tested 1 h or 24 h post-dosing with the test compounds or vehicle. Animals received a 15 min habituation session 1 day before the 5 min test. A subset of compounds tested at 1 h post-dosing were retested at 1 wk post-dosing in the same sets of animals. Water was changed after every other animal. Animals were videotaped, and floating time as defined as the minimal amount of effort required to keep the animals head above water was scored offline by a blinded experimenter with high inter-rater reliability (Pearson's r>0.9).
Each compound tested at dose level shown. Significance vs. vehicle group for each experiment is marked. […] A compound marked “No” was not statistically significant from vehicle. Data was averaged for test compound and vehicle groups (N approximately 8 per group) and the percent reduction in floating for group treated with test compound relative to group treated with vehicle is shown.

NMDAR2A = target: T1, NMDAR2A (Homo sapiens, UniProt Q12879); assay: [3H]MK-801 binding in NMDAR2A expressing HEK cell membranes; assay type: biochemical; design: key to B: log EC50: 0=−; ≥1×10^−9 M (e.g., −8)=+; <1×10^−9 M (e.g., −10)=++; conditions: 50 μM glutamate; for EC50: read-out: B: log EC50 (converted); for Emax: read-out: A: % maximal [3H]MK-801 binding relative to 1 mM glycine
T1 construct: expressed in transfected cells; host or cells: HEK cells (membrane extract)
T1 sequence (Q12879 23-1464, species assumed, other chains not shown): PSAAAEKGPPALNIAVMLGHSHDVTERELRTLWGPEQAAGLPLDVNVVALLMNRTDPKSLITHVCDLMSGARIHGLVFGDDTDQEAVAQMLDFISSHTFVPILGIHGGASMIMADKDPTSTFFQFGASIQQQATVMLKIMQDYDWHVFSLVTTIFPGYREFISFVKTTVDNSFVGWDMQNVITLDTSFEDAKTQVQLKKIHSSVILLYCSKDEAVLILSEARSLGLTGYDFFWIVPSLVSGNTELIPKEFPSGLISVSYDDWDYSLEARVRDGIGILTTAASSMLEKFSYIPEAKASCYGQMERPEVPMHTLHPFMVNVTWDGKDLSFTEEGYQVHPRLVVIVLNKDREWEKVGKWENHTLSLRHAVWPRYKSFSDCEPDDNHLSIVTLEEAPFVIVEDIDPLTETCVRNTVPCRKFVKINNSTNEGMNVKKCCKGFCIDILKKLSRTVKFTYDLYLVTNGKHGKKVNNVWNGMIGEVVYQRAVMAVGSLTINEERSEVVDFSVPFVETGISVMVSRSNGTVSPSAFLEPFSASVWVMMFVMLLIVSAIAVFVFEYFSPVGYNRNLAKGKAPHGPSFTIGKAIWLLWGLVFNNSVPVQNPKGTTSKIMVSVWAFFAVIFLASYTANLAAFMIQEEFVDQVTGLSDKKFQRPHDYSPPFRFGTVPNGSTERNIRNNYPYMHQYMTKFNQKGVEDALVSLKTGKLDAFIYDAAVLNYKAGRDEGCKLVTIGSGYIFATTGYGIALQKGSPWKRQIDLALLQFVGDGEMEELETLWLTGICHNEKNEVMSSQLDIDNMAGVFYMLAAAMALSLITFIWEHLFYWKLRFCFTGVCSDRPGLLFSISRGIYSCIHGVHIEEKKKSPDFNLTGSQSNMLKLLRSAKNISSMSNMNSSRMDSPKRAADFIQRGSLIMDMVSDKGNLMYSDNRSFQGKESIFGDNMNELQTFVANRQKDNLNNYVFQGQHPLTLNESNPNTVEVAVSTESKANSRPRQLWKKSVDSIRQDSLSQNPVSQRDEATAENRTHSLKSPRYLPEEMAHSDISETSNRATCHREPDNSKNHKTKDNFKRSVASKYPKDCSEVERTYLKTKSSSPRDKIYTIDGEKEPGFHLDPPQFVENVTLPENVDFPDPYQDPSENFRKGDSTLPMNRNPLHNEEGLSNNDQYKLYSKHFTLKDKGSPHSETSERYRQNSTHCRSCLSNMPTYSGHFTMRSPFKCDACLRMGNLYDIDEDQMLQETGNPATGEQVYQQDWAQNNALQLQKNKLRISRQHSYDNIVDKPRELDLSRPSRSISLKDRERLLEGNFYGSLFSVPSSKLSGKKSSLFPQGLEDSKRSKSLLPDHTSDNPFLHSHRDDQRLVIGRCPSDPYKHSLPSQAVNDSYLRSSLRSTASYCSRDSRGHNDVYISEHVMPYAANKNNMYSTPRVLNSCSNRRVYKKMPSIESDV
Method: (§1) Assays were conducted as described by Moskal et al., “GLYX-13: a monoclonal antibody-derived peptide that acts as an N-methyl-D-aspartate receptor modulator,” Neuropharmacology, 49, 1077-87, 2005. These studies were designed to determine if the test compounds act to facilitate NMDAR activation in NMDAR2A, NMDAR2B, NMDAR2C or NMDAR2D expressing HEK cell membranes as measured by increases in [^3H]MK-801 binding.
(§2) In the assay, 300 μg of NMDAR expressing HEK cell membrane extract protein was preincubated for 15 minutes at 25° C. in the presence of saturating concentrations of glutamate (50 μM) and varying concentrations of test compound (1×10^−15M−1×10^−7M), or 1 mM glycine. Following the addition of 0.3 μCi of [^3H]MK-801 (22.5 Ci/mmol), reactions were again incubated for 15 minutes at 25° C. (nonequilibrium conditions). Bound and free [^3H]MK-801 were separated via rapid filtration using a Brandel apparatus.
(§3) In analyzing the data, the DPM (disintegrations per minute) of [^3H]MK-801 remaining on the filter were measured for each concentration of test compound or for 1 mM glycine. The DPM values for each concentration of a ligand (N=2) were averaged. The baseline value was determined from the best fit curve of the DPM values modeled using the GraphPad program and the log(agonist) vs. response (three parameters) algorithm was then subtracted from all points in the dataset. The % maximal [^3H]MK-801 binding was then calculated relative to that of 1 mM glycine: all baseline subtracted DPM values were divided by the average value for 1 mM glycine. The EC50 and % maximal activity were then obtained from the best fit curve of the % maximal [^3H]MK-801 binding data modelled using the GraphPad program and the log(agonist) vs. response (three parameters) algorithm.
(§4) The tables below summarize the results for the wild type […] NMDAR2A, NMDAR2B, NMDAR2C, and NMDAR2D, and whether the compound is not an agonist (−), is an agonist (+), or is a strong agonist (++), where column A is based on the % maximal [^3H]MK-801 binding relative to 1 mM glycine (−=0; <100%=+; and >100%=++); and column B is based on log EC50 values (0=−; ≥1×10^−9 M (e.g., −8)=+; and <1×10^−9 M (e.g., −10)=++).

NMDAR2B = target: T2, NMDAR2B (Homo sapiens, UniProt Q13224); assay: [3H]MK-801 binding in NMDAR2B expressing HEK cell membranes; assay type: biochemical; design: key to B: log EC50: 0=−; ≥1×10^−9 M (e.g., −8)=+; <1×10^−9 M (e.g., −10)=++; conditions: 50 μM glutamate; for EC50: read-out: B: log EC50 (converted); for Emax: read-out: A: % maximal [3H]MK-801 binding relative to 1 mM glycine
T2 construct: expressed in transfected cells; host or cells: HEK cells (membrane extract)
T2 sequence (Q13224 27-1484, species assumed, other chains not shown): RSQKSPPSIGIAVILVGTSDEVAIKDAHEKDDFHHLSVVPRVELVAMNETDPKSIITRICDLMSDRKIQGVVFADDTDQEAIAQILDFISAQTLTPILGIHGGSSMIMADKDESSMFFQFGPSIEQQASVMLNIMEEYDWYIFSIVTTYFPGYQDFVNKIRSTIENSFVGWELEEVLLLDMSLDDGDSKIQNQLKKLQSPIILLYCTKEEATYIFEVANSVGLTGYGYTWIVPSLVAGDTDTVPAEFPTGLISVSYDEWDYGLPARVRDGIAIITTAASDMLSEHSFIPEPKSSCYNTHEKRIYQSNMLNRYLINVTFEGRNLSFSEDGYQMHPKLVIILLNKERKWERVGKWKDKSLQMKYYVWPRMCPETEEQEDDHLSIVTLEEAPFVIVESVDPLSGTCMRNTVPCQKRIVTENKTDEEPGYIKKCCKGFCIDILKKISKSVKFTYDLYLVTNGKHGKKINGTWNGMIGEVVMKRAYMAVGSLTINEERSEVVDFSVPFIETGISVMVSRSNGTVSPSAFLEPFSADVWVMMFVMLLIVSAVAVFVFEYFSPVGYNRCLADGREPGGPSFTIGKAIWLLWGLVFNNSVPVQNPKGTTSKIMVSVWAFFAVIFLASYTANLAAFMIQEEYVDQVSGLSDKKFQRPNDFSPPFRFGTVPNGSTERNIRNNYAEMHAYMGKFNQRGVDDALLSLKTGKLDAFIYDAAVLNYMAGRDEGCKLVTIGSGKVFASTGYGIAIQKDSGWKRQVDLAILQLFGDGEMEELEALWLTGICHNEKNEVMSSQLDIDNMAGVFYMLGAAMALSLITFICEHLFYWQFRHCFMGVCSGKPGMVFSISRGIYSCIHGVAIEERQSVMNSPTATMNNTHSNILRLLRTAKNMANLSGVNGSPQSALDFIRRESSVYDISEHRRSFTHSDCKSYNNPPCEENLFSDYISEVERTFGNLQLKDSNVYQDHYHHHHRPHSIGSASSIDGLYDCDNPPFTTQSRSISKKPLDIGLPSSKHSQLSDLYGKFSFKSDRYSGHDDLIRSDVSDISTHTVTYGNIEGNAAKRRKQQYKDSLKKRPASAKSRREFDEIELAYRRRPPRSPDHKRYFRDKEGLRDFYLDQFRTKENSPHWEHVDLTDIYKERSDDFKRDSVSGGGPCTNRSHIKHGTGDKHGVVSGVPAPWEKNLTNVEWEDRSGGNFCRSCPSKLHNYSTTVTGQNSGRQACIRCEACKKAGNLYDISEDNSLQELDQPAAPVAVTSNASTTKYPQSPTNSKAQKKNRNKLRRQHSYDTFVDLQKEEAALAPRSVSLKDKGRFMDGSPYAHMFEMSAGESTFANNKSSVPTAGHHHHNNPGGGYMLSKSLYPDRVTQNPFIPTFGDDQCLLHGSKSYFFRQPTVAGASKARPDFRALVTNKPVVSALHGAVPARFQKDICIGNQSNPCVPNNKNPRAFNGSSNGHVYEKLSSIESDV
Method: as §1, §2, §3, §4

NMDAR2D = target: T3, NMDAR2D (Homo sapiens, UniProt O15399); assay: [3H]MK-801 binding in NMDAR2D expressing HEK cell membranes; assay type: biochemical; design: key to B: log EC50: 0=−; ≥1×10^−9 M (e.g., −8)=+; <1×10^−9 M (e.g., −10)=++; conditions: for A: % maximal [3H]MK-801 binding relative to 1 mM glycine: c3, taken as NMDAR2D
T3 construct: expressed in transfected cells; host or cells: HEK cells (membrane extract)
T3 sequence (O15399 28-1336, species assumed, other chains not shown): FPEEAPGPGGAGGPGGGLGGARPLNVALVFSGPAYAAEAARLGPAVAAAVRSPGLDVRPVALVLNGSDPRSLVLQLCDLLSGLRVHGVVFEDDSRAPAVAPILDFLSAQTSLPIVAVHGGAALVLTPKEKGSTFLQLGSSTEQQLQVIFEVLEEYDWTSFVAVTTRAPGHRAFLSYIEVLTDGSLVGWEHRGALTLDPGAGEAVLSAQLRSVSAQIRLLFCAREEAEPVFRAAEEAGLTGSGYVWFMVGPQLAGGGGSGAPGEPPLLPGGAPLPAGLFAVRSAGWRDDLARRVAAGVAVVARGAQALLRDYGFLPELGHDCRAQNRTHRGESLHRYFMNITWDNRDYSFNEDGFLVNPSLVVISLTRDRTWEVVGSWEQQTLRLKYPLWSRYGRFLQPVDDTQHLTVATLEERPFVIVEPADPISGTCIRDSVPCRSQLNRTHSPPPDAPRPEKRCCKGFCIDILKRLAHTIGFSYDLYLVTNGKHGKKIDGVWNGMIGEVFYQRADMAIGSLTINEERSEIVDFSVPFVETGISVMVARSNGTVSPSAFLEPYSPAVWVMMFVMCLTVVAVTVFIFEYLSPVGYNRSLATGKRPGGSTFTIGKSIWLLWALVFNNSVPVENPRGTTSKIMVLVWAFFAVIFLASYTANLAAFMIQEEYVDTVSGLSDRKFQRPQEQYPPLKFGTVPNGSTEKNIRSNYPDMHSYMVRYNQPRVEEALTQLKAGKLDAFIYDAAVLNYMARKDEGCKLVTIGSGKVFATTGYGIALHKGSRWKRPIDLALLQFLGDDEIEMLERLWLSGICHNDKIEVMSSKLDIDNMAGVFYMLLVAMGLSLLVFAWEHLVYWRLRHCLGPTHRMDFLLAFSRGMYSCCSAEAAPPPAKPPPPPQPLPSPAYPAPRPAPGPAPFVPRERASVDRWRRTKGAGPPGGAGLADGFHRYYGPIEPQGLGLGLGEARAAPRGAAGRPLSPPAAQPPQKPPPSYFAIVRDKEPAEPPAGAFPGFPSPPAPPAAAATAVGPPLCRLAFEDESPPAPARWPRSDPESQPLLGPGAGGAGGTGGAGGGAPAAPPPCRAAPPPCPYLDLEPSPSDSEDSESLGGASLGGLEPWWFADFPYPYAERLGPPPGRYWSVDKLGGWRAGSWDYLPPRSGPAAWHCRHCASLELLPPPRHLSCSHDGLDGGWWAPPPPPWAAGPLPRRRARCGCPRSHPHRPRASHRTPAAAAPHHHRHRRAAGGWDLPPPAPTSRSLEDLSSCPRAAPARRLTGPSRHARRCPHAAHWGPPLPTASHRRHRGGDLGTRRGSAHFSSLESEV
Method: as §1, §2, §3, §4

[1] = oral pharmacokinetics (plasma, brain, CSF); assay type: in vivo; conditions: Sprague Dawley rats, per os 10 mg/kg; for Tmax: normal saline (first four compounds: 5% NMP, 5% Solutol HS, 90% normal saline)
Method: Plasma, brain, and CSF samples were analyzed at various time points over a 24 hour period.

IV pharmacokinetics = assay type: in vivo; conditions: Sprague Dawley rats; for C0: normal saline (first four compounds: 5% NMP, 5% Solutol HS, 90% normal saline)
Method: Sprague Dawley rats were dosed intravenously using a normal saline formulation containing 2 mg/kg of the compounds identified in the below table (except for the first four compounds that were delivered in 5% NMP, 5% Solutol® HS and 90% normal saline formulation). The table below summarizes the results of the IV pharmacokinetics.

[2] = Sprague Dawley, rat, plasma, po, 10 mg/kg
[3] = Sprague Dawley, rat, in vivo, iv, 2 mg/kg

With `O=C1NCCC12CCCCN2` (centres unmarked) [RG-602] the Significance vs. vehicle (Sprague Dawley rats; 1 wk post-dose) was “Yes (statistically significant (p<=0.05) from vehicle at dose level shown)”, the “% reduction in float time” value (Sprague Dawley rats; 1 wk post-dose) was 55.5% and the Significance vs. vehicle (Sprague Dawley rats; 1 h post-dose, floating time in 5 min test) was “Yes (statistically significant (p<=0.05) from vehicle at dose level shown)”. The “% reduction in float time” value (Sprague Dawley rats; 1 h post-dose) was 71.1%, the “A: % maximal [3H]MK-801 binding relative to 1 mM glycine” value (NMDAR2A) was “+ (<100%=+)” and the EC50 (NMDAR2A) was < 1 nM. The “A: % maximal [3H]MK-801 binding relative to 1 mM glycine” value (NMDAR2B) was “+ (<100%=+)”, the EC50 (NMDAR2B) was < 1 nM and the “A: % maximal [3H]MK-801 binding relative to 1 mM glycine” value (NMDAR2D; second part of table (r25-r35)) was “+ (<100%=+)”. The EC50 (NMDAR2D; second part of table (r25-r35), c4, taken as NMDAR2D, read-out: B: log EC50 (converted)) was < 1 nM.

In the case of `O=C1NCCC12CCNCC2` [RG-603], the AUC(0-t) [1, 2] was 897 ng·h/mL, the bioavailability [1, 2] was 11% and the Tmax ([1]; Sprague Dawley, rat, plasma, po, 10 mg/kg, read-out: Tmax) was 60 min. The Cmax ([1]; Sprague Dawley, rat, plasma, po, 10 mg/kg, plasma, read-out: Cmax) was 311 ng/mL, the Emax (NMDAR2A) was < 100% and the EC50 (NMDAR2A) was ≥ 1 nM. For the same molecule, the Emax (NMDAR2B) was < 100%, the EC50 (NMDAR2B) was < 1 nM and the AUC(0-t) (IV pharmacokinetics; [3]) was 1570 ng·h/mL. The clearance (IV pharmacokinetics; [3]) was 21.1 mL/min/kg, the half-life (IV pharmacokinetics; [3]) was 59.4 min and the C0 (IV pharmacokinetics; Sprague Dawley, rat, in vivo, iv, 2 mg/kg, read-out: C0) was 5190 ng/mL. It also gave a Vd (IV pharmacokinetics; Sprague Dawley, rat, in vivo, iv, 2 mg/kg, read-out: Vss) of 0.81 L/kg.

With `CC(C)(C)OC(=O)N1CCCCC12CCNC2=O` (centres unmarked) [RG-606] the “% F” value [1] was 48%, the AUClast [1] was 1933 ng·h/mL and the “CSF Cmax” value ([1]; CSF) was 1077 ng/mL. The “Brain Cmax” value ([1]; brain) was 612 ng/mL, the Tmax [1] was 15 min and the Cmax ([1]; plasma) was 2812 ng/mL. The “A: % maximal [3H]MK-801 binding relative to 1 mM glycine” value (NMDAR2A) was “− (−=0)”, the “B: log EC50” value (NMDAR2A) was “−” and the “A: % maximal [3H]MK-801 binding relative to 1 mM glycine” value (NMDAR2B) was “+ (<100%=+)”. For the same molecule, the EC50 (NMDAR2B) was < 1 nM, the “A: % maximal [3H]MK-801 binding relative to 1 mM glycine” value (NMDAR2D; second part of table (r25-r35)) was “− (−=0)” and the “B: log EC50” value (NMDAR2D; second part of table, c4, taken as NMDAR2D) was “−”. It also gave an AUClast (IV pharmacokinetics; intravenous 2 mg/kg) of 804 ng·h/mL, a Cl (IV pharmacokinetics; intravenous 2 mg/kg) of 41.29 mL/min/kg and a T1/2 (IV pharmacokinetics; intravenous 2 mg/kg) of 20.4 min. It also gave a Vss (IV pharmacokinetics; intravenous 2 mg/kg) of 0.91 L/kg and a C0 (IV pharmacokinetics; intravenous 2 mg/kg) of 2303 ng/mL.

In the case of `CC(C)C(=O)N1CCCCC12CCNC2=O` (centres unmarked) [RG-609], the “B: log EC50” value (NMDAR2A) was “−”, the Emax (NMDAR2A) was 0% and the “B: log EC50” value (NMDAR2B) was “−”. The Emax (NMDAR2B) was 0%.

With `CC(C)C(=O)N1CCCCC12CCNC2=O` (centres unmarked) [RG-610] the “B: log EC50” value (NMDAR2A) was “−” and the “B: log EC50” value (NMDAR2B) was “−”.

In the case of `CC(C)(C)OC(=O)N1CCC2(CCNC2=O)CC1` [RG-619], the “B: log EC50” value (NMDAR2A) was “−”, the Emax (NMDAR2A) was 0% and the “B: log EC50” value (NMDAR2B) was “−”. For the same molecule, the Emax (NMDAR2B) was 0%.
